Measured values taken from ChEMBL document CHEMBL1201862, “PubChem BioAssay data set” (2004).
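Protocol summary: plate cells (96-well), add compound at 5 concentrations, incubate 48 h, interpolate endpoints linearly. At the GI50, growth is halved.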 Active and inactive are the calls of the source. Rule as the data show it: active = GI50 up to about 1.1 µM and inactive = higher.

What was measured:
Assay in all cases: inhibition of tumour cell growth, NCI panel, 48 h
MOLT-4 = test system: MOLT-4
HCC 2998 = test system: HCC 2998
UACC-62 = test system: UACC-62
UO-31 = test system: UO-31
KM12 = test system: KM12
T47D = test system: T47D
NCI-H522 = test system: NCI-H522
SK-MEL-28 = test system: SK-MEL-28
SNB-19 = test system: SNB-19
K562 = test system: K562
NCI-H460 = test system: NCI-H460
SF-268 = test system: SF-268
SK-MEL-5 = test system: SK-MEL-5
UACC-257 = test system: UACC-257
ACHN = test system: ACHN
RPMI-8226 = test system: RPMI-8226
TK-10 = test system: TK-10
SK-OV-3 = test system: SK-OV-3
A549 = test system: A549
OVCAR-4 = test system: OVCAR-4

Measured: GI50

O=c1c2cc(O)c(O)cc2oc2cc(O)c(C3OC(CO)C(O)C(O)C3O)c(O)c12 (stereo not given)
inactive: MOLT-4 > 100 µM | HCC 2998 > 100 µM | UACC-62 > 100 µM | UO-31 > 100 µM | KM12 > 100 µM | T47D > 100 µM | NCI-H522 > 100 µM | SK-MEL-28 > 100 µM | SNB-19 > 100 µM | K562 > 100 µM | NCI-H460 > 100 µM | SF-268 > 100 µM | SK-MEL-5 > 100 µM | UACC-257 > 100 µM | ACHN > 100 µM | RPMI-8226 > 100 µM | TK-10 > 100 µM | SK-OV-3 > 100 µM | A549 > 100 µM | OVCAR-4 > 100 µM

CCOC(=O)CCN1C(=O)c2c(NC(=O)C(=O)O)cccc2S1(=O)=O
inactive: MOLT-4 > 100 µM | HCC 2998 > 100 µM | UACC-62 > 100 µM | UO-31 > 100 µM | KM12 > 100 µM | T47D > 100 µM | NCI-H522 > 100 µM | SK-MEL-28 > 100 µM | SNB-19 > 100 µM | K562 > 100 µM | NCI-H460 > 100 µM | SF-268 > 100 µM | SK-MEL-5 > 10 µM | UACC-257 > 100 µM | ACHN > 100 µM | RPMI-8226 > 100 µM | TK-10 > 100 µM | SK-OV-3 > 100 µM | A549 > 100 µM | OVCAR-4 > 100 µM

Cc1ccc(/N=N/C(=N\c2ccc(F)cc2)c2ccc(N(CCC#N)CCC#N)cc2)cc1
inactive: MOLT-4 > 100 µM | HCC 2998 46.9 µM | UACC-62 > 100 µM | UO-31 > 100 µM | KM12 33.3 µM | T47D 47.1 µM | NCI-H522 19.2 µM | SK-MEL-28 > 100 µM | SNB-19 > 100 µM | K562 > 100 µM | NCI-H460 33.5 µM | SF-268 > 100 µM | SK-MEL-5 44.1 µM | UACC-257 30.3 µM | ACHN > 100 µM | RPMI-8226 74.6 µM | TK-10 > 100 µM | SK-OV-3 > 100 µM | A549 45.9 µM | OVCAR-4 60.3 µM

CCOC(=O)CC(N1CC1)N1CC1
inactive: MOLT-4 > 10 µM | HCC 2998 > 10 µM | UACC-62 > 10 µM | UO-31 > 10 µM | KM12 > 10 µM | T47D > 10 µM | NCI-H522 > 10 µM | SK-MEL-28 > 10 µM | SNB-19 > 10 µM | K562 > 10 µM | NCI-H460 > 10 µM | SF-268 > 10 µM | SK-MEL-5 > 10 µM | UACC-257 > 10 µM | ACHN > 10 µM | RPMI-8226 > 10 µM | TK-10 > 10 µM | SK-OV-3 > 10 µM | A549 > 10 µM | OVCAR-4 > 10 µM

Cc1c(C)c2ccc(OCC(O)COC(C)C)c(C)c2oc1=O (stereo not given)
inactive: MOLT-4 > 10 µM | HCC 2998 24.8 µM | UACC-62 38.5 µM | UO-31 41.8 µM | KM12 56.1 µM | T47D > 100 µM | NCI-H522 17.2 µM | SK-MEL-28 34 µM | SNB-19 57.5 µM | K562 25.4 µM | NCI-H460 16.7 µM | SF-268 > 100 µM | SK-MEL-5 16.4 µM | UACC-257 19.8 µM | ACHN 44.3 µM | RPMI-8226 21.4 µM | TK-10 25.1 µM | SK-OV-3 > 100 µM | A549 34.7 µM | OVCAR-4 > 10 µM

Fc1nc(Sc2ncnc3nc[nH]c23)nc(-c2c3ccccc3c3sc4ccccc4n23)n1
inactive: MOLT-4 77.8 µM | HCC 2998 > 100 µM | UACC-62 > 100 µM | UO-31 > 100 µM | KM12 > 100 µM | T47D > 100 µM | NCI-H522 > 100 µM | SK-MEL-28 85.5 µM | SNB-19 > 100 µM | K562 > 100 µM | NCI-H460 > 100 µM | SF-268 36.3 µM | SK-MEL-5 > 100 µM | UACC-257 > 100 µM | ACHN > 100 µM | RPMI-8226 > 100 µM | TK-10 > 100 µM | SK-OV-3 > 100 µM | A549 > 100 µM | OVCAR-4 > 100 µM

Cn1cnc2c(NCc3ccccc3)nc(NCCO)nc21 [OLOMOUCINE]
inactive: MOLT-4 70.1 µM | HCC 2998 79.1 µM | UACC-62 32.6 µM | UO-31 31.4 µM | KM12 35 µM | T47D 50.5 µM | NCI-H522 51.4 µM | SK-MEL-28 52.8 µM | SNB-19 48.6 µM | K562 107 µM | NCI-H460 104 µM | SF-268 49 µM | SK-MEL-5 40.6 µM | UACC-257 > 95.3 µM | ACHN 35.9 µM | RPMI-8226 53.8 µM | TK-10 63.8 µM | SK-OV-3 > 95.5 µM | A549 43.9 µM | OVCAR-4 94.2 µM
